Patent publication US11839612B1, “Compounds and combinations thereof for treating neurological and psychiatric conditions” (priority 2022, dated 2023)
“Also recorded” adds a separate entry of the source.

Columns and labels:
[1] = Pharmacokinetics in subjects with moderate renal impairment vs matched controls
From the text: (§1) Data are GMRs and 90% CIs. Reference used are the matched healthy subjects for renal and hepatic impairment studies, and extensive or ultra-extensive CYP2D6 metabolizers.

[2] = Co-administration of paroxetine (strong CYP2D6 inhibitor) and the subject combination
From the text: Co-administration of the SSRI paroxetine and the subject combination was studied in 29 healthy volunteers.

[3] = Pharmacokinetics after administration of the subject combination (steady state); conditions: human, in vivo; for half-life: mean elimination half-life
[4] = Food effect on pharmacokinetics of the subject combination; assay type: in vivo, human; conditions: subject combination administered with food
plasma protein = assay: Plasma protein binding
[5] = Pharmacokinetics in CYP2D6 poor metabolizers vs extensive metabolizers
From the text: Approximately 7 to 10% of Caucasians and 3 to 8% of African Americans lack the capacity to metabolize CYP2D6 substrates and are classified as poor metabolizers.
as §1

[6] = 20 mg paroxetine concomitantly with tablet twice daily vs tablet twice daily without paroxetine
[7] = 3 poor metabolizers compared to extensive metabolizers
[8] = 7 subjects with moderate renal impairment (GFR 30-60 mL/min) vs 6 matched controls with normal renal function
[9] = patients having moderate renal impairment

## CC(NC(C)(C)C)C(=O)c1cccc(Cl)c1 (racemic) [bupropion]
[1]; human, in vivo
  concentrations compared with patients with healthy renal function: higher
  increase in AUC0-2: 1.80 fold
  increase of exposure: approximately 2 fold
  reduction of clearance: 50%

## COc1ccc2c(c1)[C@]13CCCC[C@@H]1[C@H](C2)N(C)CC3 [dextromethorphan]
[2]; [6]
  increase in AUC0-2: 2.69 fold
  increase in Cmax: 2.38 fold
[2]; 29 healthy volunteers, paroxetine co-administered with the subject combination
  change of overall exposure by paroxetine: 2.5 fold
[2]; concomitant use of the subject combination with a strong CYP2D6 inhibitor
  plasma concentrations with concomitant strong CYP2D6 inhibitor: increases
[3]
  Tmax: ~3 h
[3]; following 8 days of administration of the subject combination in extensive metabolizers
  half-life: ~22 h
[3]; subject combination
  half-life: 22 h
[4]
  AUC0-2 decrease with food: 14%
  Cmax change with food: unchanged
Plasma protein
  fraction unbound: 0.3 to 0.4
[5]; [7]
  increase in AUC0-12: ~3.4 fold
  increase in Cmax: ~3 fold
[5]; steady state, subject combination
  plasma concentrations in CYP2D6 poor metabolizers compared with non-poor metabolizers: increases; also recorded: generally higher
[1]; [8]
  increase of exposure: approximately 2 fold
  reduction of clearance: 50%
[1]; [9]
  concentrations compared with patients with healthy renal function: higher
  increase in AUC0-2: 2.21 fold
